Results as given in patent US12447151B2, “Alkyne derivative, preparation method for same, and uses thereof” (ZHEJIANG HISUN PHARMACEUTICAL CO., LTD., priority 2019, dated 2025).

Experiments:
[1] = Metabolic stability in liver microsomes; assay type: in vitro ADME; settings: human liver microsomes 0.5 mg/mL, 1 μM compound, NADPH 1 mM; read-out: half-life period/(T1/2, min)
Procedure: The test compound was co-incubated with human liver microsomes, and coenzyme NADPH was added to initiate the reaction. At 0, 5, 15, 30 and 60 minutes, 20 μL of incubation solution was taken out and transferred to 200 μL of acetonitrile containing internal standard to stop the reaction. After protein precipitation, centrifugation was performed at 3,700 rpm for 10 minutes and the supernatant was taken. The supernatant was diluted 1:1 with water and analyzed by LC-MS/MS method. According to the elimination half-life of the test compound in the incubation system, the in vitro intrinsic clearance rate was calculated. Midazolam was used as the internal reference compound and incubated for two aliquots in parallel.
The ratio of peak area of the analyte/internal standard (Aanalyte/AIS) was obtained by the instrument. The remaining percentage (% Control) was calculated from the ratio of Aanalyte/AIS in the non-zero time point sample to the zero time point sample. Ln (% Control) versus incubation time was plotted and a linear fit was performed. The clearance constant (k, min^−1), the clearance half-life (T1/2, min) and the in vitro intrinsic clearance rate (CLint, mL·min^−1·mg^−1 proteins) of the test compound were calculated by the following equations.
Cprotein(mg·mL^−1) refers to the concentration of microsomal protein in the incubation system.

recombinant human PI3Kγ = recombinant human PI3Kγ (Homo sapiens (Human), UniProt P48736); experiment: Inhibitory activity on PI3K kinase (ADP-Glo Kinase Assay); assay type: biochemical; settings: for IC50: ADP-Glo, ATP 10 μM
Chain of recombinant human PI3Kγ (P48736 whole entry): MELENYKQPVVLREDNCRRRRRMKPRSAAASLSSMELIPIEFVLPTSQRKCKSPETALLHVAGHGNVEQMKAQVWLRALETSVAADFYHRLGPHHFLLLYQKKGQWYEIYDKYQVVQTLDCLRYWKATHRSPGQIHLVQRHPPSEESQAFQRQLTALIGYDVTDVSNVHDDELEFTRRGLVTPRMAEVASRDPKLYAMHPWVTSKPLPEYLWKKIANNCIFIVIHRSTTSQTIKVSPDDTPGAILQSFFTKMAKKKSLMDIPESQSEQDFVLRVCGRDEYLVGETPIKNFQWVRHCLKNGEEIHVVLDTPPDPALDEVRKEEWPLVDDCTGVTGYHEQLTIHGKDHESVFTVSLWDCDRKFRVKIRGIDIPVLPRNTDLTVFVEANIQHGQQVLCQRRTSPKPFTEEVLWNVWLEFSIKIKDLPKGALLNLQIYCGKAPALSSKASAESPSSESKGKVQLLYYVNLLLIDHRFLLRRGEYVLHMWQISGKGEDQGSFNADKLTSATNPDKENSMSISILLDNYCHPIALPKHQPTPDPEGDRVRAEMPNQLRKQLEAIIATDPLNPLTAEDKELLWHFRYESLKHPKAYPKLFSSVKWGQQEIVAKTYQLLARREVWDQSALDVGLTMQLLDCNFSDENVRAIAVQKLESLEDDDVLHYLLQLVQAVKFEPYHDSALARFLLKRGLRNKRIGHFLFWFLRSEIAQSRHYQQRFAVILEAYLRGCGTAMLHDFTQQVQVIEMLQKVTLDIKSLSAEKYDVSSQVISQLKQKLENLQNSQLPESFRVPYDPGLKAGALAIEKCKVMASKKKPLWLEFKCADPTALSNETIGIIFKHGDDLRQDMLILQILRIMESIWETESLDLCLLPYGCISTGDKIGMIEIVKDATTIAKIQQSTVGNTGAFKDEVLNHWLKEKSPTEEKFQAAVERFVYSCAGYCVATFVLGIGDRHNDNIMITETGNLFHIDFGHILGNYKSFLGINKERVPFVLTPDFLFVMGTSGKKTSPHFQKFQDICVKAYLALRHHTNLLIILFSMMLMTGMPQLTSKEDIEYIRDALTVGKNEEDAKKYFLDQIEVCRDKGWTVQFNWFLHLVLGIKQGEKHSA
Source text: The following method is used to determine the degree of inhibition of recombinant human PI3Kα, PI3Kβ, PI3Kγ and PI3Kδ kinase activity by the compounds of the present invention under in vitro conditions. Promega's ADP-Glo Kinase Assay Kit (Cat. No. V9102) was used in this method. The above kit was a luminescence kinase detection kit, which was used to detect the ADP content produced by the kinase reaction. The ADP content was positively correlated with the kinase activity. By measuring the ADP content, the inhibition of the compound on the activity of PI3Kα, PI3Kβ, PI3Kγ and PI3Kδ kinases was reflected. For detailed experimental operations, please refer to the kit instructions. Recombinant human PI3Kα, PI3Kγ, and PI3Kδ were purchased from Invitrogen, and PI3Kβ was purchased from Promega (category numbers were PI3Kα: PV4788; PI3Kβ: V1751; PI3Kγ: PV4786 and PI3Kδ: PV6451 separately).

[2] = Oral pharmacokinetics in ICR mice; assay type: in vivo; settings: male, mouse, plasma, Oral (5 mg/kg); for AUC(0-inf): read-out: Area under the curve AUC0-∞; for bioavailability: read-out: Bioavailability F; for Cmax: read-out: Plasma concentration Cmax
Procedure: (§1) Using ICR mice as the test animals, the mice were intragastrically administrated with the compound of the present invention. LC/MS/MS method was used to determine the drug concentration in the plasma at different times to study the pharmacokinetic characteristics of the compound of the present invention in mice.
(§2) An appropriate amount of the compound to be tested was weighed, and 0.5% sodium carboxymethylcellulose (containing 0.05% Tween80) was added. The mixture was vortexed, and sonicated so that the solid was ultrasonically dispersed uniformly to obtain a suspension; 100 μL×2 of the preparation were aspirated, and placed in 1.5-mL EP tubes, stored at 2 to 8° C. The concentration of the preparation was 0.5 mg/mL.
Twenty-seven healthy adult ICR male mice were fasted overnight and then intragastrically administered (dosage of administration was 5 mg/kg), and fed 4 hours after administration.
At 0.083 hours, 0.25 hours, 0.5 hours, 1 hour, 2 hours, 4 hours, 8 hours, 12 hours, and 24 hours after administration, 80 μL of blood was collected from the orbital vein. About 0.08 mL of blood was collected, and placed in EDTA-K2 anticoagulation tube. […] The collected plasma was stored at −40 to −20° C. before analysis. The […] method was used to determine the content of the test compound in the plasma of ICR mice after intragastric administration of different compounds.

[3] = Oral pharmacokinetics in SD rats; assay type: in vivo; settings: male, rat, plasma, Oral (5 mg/kg); for AUC(0-inf): read-out: Area under the curve AUC0-∞; for bioavailability: read-out: Bioavailability F; for half-life: read-out: Half-life period T1/2 (converted); for Cmax: read-out: Plasma concentration Cmax
Procedure: as §1, with “SD rats” for “ICR mice”, “as” for “as the”, “rats” for “mice”, “rats.” for “mice.”
as §2, with “obtain a suspension. 100 μL×2” for “obtain a suspension; 100 μL×2”, “of the filtered preparation were” for “of the preparation were”, “at […].” for “at 2 to 8° C.”
Nine healthy adult male SD rats were fasted overnight and then intragastrically administered (dosage of administration was 5 mg/kg), and fed 4 hours after administration.
About 0.2 mL of blood was collected from the jugular vein at 0.083 hours, 0.25 hours, 0.5 hours, 1 hour, 2 hours, 4 hours, 8 hours, 12 hours, and 24 hours after administration, and heparin sodium was used for anticoagulation. The collected blood samples were placed on ice and centrifuged to separate the plasma (centrifugation conditions: 1500 g, 10 minutes). The collected plasma was stored at −40 to −20° C. before analysis. The LC-MS/MS method was used to determine the content of the test compound in the plasma of SD rats after intragastric administration of different compounds.

recombinant human PI3Kα = recombinant human PI3Kα (Homo sapiens (Human), UniProt P42336); experiment: Inhibitory activity on PI3K kinase (ADP-Glo Kinase Assay)
Chain of recombinant human PI3Kα (P42336 whole entry): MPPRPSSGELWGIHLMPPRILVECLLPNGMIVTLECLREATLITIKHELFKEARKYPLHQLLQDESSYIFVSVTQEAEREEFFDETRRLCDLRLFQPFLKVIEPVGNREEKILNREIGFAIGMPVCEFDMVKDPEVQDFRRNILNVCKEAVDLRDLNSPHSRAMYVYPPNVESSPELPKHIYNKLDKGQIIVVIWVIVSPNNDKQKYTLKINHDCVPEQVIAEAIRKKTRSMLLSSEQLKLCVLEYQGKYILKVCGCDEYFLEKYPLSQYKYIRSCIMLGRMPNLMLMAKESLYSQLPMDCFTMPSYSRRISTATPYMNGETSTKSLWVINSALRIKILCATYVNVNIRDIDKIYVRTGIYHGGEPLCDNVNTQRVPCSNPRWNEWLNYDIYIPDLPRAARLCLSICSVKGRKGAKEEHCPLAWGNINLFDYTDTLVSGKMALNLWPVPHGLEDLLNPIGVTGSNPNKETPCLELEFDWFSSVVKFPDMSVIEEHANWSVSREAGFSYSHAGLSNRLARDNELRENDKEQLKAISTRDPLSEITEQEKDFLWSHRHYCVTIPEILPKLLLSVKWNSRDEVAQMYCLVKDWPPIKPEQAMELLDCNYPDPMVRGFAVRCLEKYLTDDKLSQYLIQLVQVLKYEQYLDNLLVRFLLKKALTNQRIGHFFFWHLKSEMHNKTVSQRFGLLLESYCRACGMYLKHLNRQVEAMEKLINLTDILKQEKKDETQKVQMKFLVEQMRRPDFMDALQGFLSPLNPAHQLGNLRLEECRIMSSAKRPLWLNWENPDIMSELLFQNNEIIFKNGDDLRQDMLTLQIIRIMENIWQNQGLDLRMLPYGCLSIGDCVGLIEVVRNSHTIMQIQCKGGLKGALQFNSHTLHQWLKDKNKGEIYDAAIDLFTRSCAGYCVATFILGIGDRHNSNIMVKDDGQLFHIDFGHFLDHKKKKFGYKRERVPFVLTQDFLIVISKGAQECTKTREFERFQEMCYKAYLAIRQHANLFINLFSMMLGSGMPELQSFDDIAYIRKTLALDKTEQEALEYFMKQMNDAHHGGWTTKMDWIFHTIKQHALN
Chain of recombinant human PI3Kα (P27986 whole entry partner): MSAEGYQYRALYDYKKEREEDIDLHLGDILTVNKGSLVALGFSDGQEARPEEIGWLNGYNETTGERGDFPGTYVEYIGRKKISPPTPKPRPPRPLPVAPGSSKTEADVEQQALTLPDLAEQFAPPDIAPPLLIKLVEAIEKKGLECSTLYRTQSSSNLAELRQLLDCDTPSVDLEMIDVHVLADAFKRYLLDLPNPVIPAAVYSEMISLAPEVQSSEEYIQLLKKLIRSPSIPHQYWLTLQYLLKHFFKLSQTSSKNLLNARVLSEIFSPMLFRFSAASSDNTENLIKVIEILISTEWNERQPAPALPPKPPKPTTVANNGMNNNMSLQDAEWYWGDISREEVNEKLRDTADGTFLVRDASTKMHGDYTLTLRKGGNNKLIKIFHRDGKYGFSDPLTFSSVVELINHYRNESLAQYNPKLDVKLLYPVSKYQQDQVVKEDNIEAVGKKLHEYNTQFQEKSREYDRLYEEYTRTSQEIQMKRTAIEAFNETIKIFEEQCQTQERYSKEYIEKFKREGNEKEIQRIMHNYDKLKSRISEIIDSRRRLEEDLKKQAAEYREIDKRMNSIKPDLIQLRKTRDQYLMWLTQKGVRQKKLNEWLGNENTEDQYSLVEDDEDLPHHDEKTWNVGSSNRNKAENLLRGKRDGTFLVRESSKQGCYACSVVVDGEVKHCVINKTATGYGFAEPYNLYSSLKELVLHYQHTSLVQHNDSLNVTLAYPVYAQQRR
Source text: (§3) The following method is used to determine the degree of inhibition of recombinant human PI3Kα, PI3Kβ, PI3Kγ and PI3Kδ kinase activity by the compounds of the present invention under in vitro conditions. Promega's ADP-Glo Kinase Assay Kit (Cat. No. V9102) was used in this method. The above kit was a luminescence kinase detection kit, which was used to detect the ADP content produced by the kinase reaction. The ADP content was positively correlated with the kinase activity. By measuring the ADP content, the inhibition of the compound on the activity of PI3Kα, PI3Kβ, PI3Kγ and PI3Kδ kinases was reflected. […] Recombinant human PI3Kα, PI3Kγ, and PI3Kδ were purchased from Invitrogen, and PI3Kβ was purchased from Promega (category numbers were PI3Kα: PV4788; PI3Kβ: V1751; PI3Kγ: PV4786 and PI3Kδ: PV6451 separately).

recombinant human PI3Kβ = recombinant human PI3Kβ (Homo sapiens (Human), UniProt P42338); experiment: as above
Chain of recombinant human PI3Kβ (P42338 whole entry): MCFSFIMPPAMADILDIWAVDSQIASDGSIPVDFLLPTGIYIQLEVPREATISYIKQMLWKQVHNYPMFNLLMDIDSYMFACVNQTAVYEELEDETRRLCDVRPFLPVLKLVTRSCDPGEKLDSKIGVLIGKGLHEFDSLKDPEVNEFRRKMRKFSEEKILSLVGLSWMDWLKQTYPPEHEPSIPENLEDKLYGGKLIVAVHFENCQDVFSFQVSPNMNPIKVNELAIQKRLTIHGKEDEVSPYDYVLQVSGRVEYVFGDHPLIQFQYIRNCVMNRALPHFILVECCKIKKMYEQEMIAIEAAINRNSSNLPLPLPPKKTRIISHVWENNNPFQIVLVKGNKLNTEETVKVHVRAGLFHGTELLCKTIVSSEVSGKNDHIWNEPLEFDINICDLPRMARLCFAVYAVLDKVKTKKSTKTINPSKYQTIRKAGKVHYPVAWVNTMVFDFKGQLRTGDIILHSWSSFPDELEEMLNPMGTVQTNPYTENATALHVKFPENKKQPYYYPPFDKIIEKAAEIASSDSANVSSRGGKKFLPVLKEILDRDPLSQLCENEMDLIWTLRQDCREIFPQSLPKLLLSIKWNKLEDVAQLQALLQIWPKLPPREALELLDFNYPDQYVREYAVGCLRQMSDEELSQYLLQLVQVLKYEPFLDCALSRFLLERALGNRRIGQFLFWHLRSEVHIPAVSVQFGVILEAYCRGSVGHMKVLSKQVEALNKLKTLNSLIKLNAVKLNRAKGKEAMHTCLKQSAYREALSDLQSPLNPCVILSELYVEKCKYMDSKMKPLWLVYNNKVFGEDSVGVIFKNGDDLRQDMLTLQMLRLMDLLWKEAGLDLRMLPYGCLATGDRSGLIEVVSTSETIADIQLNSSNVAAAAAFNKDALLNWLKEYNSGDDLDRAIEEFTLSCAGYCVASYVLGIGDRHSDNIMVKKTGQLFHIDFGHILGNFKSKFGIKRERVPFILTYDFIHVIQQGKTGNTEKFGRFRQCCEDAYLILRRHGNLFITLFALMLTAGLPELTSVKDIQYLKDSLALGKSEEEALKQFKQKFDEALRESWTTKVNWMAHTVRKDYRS
Chain of recombinant human PI3Kβ (P27986 whole entry partner): as the sequence (P27986 whole entry partner) above
Source text: as §3

recombinant human PI3Kδ = recombinant human PI3Kδ (Homo sapiens (Human), UniProt O00329); experiment: as above
Chain of recombinant human PI3Kδ (O00329 whole entry): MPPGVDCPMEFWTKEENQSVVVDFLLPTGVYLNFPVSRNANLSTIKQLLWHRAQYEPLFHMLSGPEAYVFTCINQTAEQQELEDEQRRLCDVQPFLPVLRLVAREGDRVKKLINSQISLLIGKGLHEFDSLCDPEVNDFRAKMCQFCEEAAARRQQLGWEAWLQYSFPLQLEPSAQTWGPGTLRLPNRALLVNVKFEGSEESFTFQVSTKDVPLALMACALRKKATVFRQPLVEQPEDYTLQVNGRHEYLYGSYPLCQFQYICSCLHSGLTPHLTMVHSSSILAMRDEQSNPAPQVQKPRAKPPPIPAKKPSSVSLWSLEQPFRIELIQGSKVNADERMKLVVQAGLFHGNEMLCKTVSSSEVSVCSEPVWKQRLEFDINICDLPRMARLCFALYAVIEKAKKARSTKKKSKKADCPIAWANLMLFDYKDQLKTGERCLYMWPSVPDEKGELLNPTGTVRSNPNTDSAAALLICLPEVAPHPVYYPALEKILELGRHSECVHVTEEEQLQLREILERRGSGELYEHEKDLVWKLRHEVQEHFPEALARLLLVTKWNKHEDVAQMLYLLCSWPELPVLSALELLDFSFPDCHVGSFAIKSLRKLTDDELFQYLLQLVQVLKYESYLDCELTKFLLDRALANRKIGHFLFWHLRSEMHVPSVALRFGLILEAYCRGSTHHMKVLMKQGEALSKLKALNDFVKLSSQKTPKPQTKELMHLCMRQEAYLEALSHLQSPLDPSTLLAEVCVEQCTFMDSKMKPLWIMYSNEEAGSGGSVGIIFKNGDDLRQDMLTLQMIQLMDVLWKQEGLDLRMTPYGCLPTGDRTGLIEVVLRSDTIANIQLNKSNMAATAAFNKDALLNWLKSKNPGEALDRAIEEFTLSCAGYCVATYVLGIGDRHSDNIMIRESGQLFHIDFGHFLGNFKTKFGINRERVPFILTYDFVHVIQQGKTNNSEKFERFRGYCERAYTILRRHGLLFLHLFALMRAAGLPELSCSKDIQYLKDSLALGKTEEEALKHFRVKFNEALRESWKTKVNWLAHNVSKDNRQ
Chain of recombinant human PI3Kδ (P27986 whole entry partner): as the sequence (P27986 whole entry partner) above
Source text: as §3

SMILES | half-life at 1 μM [1] | IC50 (recombinant human PI3Kγ) | IC50 (PI3Kα)/IC50(PI3Kγ) (recombinant human PI3Kγ; kinase selectivity for PI3Kγ over PI3Kα) | IC50 (PI3Kβ)/IC50(PI3Kγ) (recombinant human PI3Kγ; kinase selectivity for PI3Kγ over PI3Kβ) | IC50 (PI3Kδ)/IC50(PI3Kγ) (recombinant human PI3Kγ; kinase selectivity for PI3Kγ over PI3Kδ) | AUC(0-inf) [2] | bioavailability [2] | half-life ([2]; read-out: Half-life period T½ (converted)) | Cmax [2] | AUC(0-inf) [3] | bioavailability [3] | half-life [3] | Cmax [3] | IC50 (recombinant human PI3Kα) | IC50 (recombinant human PI3Kβ) | IC50 (recombinant human PI3Kδ)
C[C@H](NC(=O)c1c(N)nn2cccnc12)c1nc2cccc(C#Cc3cnn(C)c3)c2c(=O)n1-c1ccccc1 [Compound 21 in WO2015051244A1, reference compound] | 113 min | – | – | – | – | – | – | – | – | – | – | – | – | – | – | –
C[C@H](NC(=O)c1c(N)nn2cccnc12)c1cc2cccc(C#Cc3cnn(C4CC4)c3)c2c(=O)n1-c1ccccc1 [Example 1, (S)-2-amino-N-(1-(8-((1-cyclopropyl-1H-pyrazol-4-yl)ethynyl)-1-oxo-2-phenyl-1,2-dihydroisoquinolin-3-yl)ethyl)pyrazolo[1,5-a]pyrimidine-3-carboxamide] | 11700 min | 0.46 nM | 220 | 515 | 1002 | 7470 ng·h/mL | 33% | 3.1 h | 898 ng/mL | 3940 ng·h/mL | 27% | 5.1 h | 587 ng/mL | 101 nM | 237 nM | 461 nM
C[C@H](NC(=O)c1c(N)nn2cccnc12)c1nc2ccc(F)c(C#Cc3cnn(C4CC4)c3)c2c(=O)n1-c1ccccc1 [Example 3, (S)-2-amino-N-(1-(5-((1-cyclopropyl-1H-pyrazol-4-yl)ethynyl)-6-fluoro-4-oxo-3-phenyl-3,4-dihydroquinazolin-2-yl)ethyl)pyrazolo[1,5-a]pyrimidine-3-carboxamide] | 574 min | 0.7 nM | – | – | – | – | – | – | – | – | – | – | – | 143 nM | 552 nM | 195 nM
C[C@H](NC(=O)c1c(N)nn2cccnc12)c1cc2cccc(C#Cc3cnn(C)c3)c2c(=O)n1-c1ccccc1 [IPI-549, reference compound] | 195 min | – | – | – | – | 2660 ng·h/mL | 20% | – | 484 ng/mL | 1950 ng·h/mL | 10% | 2.4 h | 358 ng/mL | – | – | –
